Results taken from patent US20090270435A1 (priority 2006, published 2009).
Counter-ions that a name gives are not always drawn.

The compounds below were run against T1, ACC1 from rat liver (Rattus norvegicus, UniProt P11497) (assay: Direct inhibition of ACC1 activity (14C-bicarbonate incorporation)). Details: ACC1 from rat liver.
T1 construct: The livers (for ACC1 preparation) or skeletal muscle tissue (for ACC2 preparation) are removed; from tissue; host or cells: liver of male CD rats (fasted, then fed a high sucrose diet)
Type: biochemical
Method: [1] Preparation of ACC1 and ACC2.
Male CD rats weighing 150-200 g are fasted for 2 days and then fed a high sucrose diet (AIN-76A rodent diet; Cat # D10001, Research Diets Inc., New Brunswick, N.J.), for 3 days at which time they are sacrificed by CO2 asphyxiation. The livers (for ACC1 preparation) or skeletal muscle tissue (for ACC2 preparation) are removed, rinsed in ice-cold phosphate-buffered saline (PBS), and homogenized in 5 volumes of homogenization buffer (50 mM potassium phosphate, pH 7.5, 10 mM EDTA, 10 mM 2-mercaptoethanol, 2 mM benzamidine, 0.2 mM phenylmethylsulfonylfluoride (PMSF), 5 mg/L each leupeptin, aprotinin, and antitrypsin) in a Waring® blender for 1 minute at 4° C. All subsequent operations are carried out at 4° C. The homogenate is made 3% with respect to polyethylene glycol (PEG) by the addition of 50% PEG solution and centrifuged at 20,000×g for 15 minutes. The resulting supernatant is adjusted to 5% PEG with the addition of 50% PEG solution and stirred for 5 minutes. The pellet (contains ACC activity) is collected by centrifugation at 20,000×g for 20 minutes, rinsed with Ice-cold doubly distilled water to remove excess PEG and re-suspended in one-fourth the original homogenate volume with homogenization buffer. Ammonium sulfate (200 g/liter) is slowly added with stirring. After 45 minutes the enzyme is collected by centrifugation for 30 minutes at 20,000×g, re-suspended in 10 ml of 50 mM HEPES, pH7.5, 0.1 mM DTT, 1.0 mM EDTA, and 10% glycerol and desalted on a Sephadex™ G-25 column (2.5 cm-x 50 cm) (Pharmacia, Piscataway N.J. now GE Healthcare) […] equilibrated with the same buffer. The desalted enzyme preparation is stored in aliquots at −70° C. Immediately prior to use, frozen ACC1 or ACC2 aliquots are thawed, diluted to 500 μg/ml in buffer containing 50 mM HEPES, pH7.5, 1.0 mM MgCl2, 10 mM tripotassium citrate, 2.0 mM dithiothreitol (DTT), and 0.75 mg/ml fatty acid-free bovine serum albumin (BSA) and pre-incubated at 37° C. for 30 minutes.
[2] Measurement of ACC inhibition. The procedures for measuring ACC1 inhibition and ACC2 inhibition are identical except for the source of the isozyme. For measurement of ACC activity and assessment of ACC inhibition, test compounds are dissolved in dimethylsulfoxide (DMSO) and 1 μL aliquots are placed in 0.5 ml polypropylene tubes. Control tubes contain 1 μL of DMSO alone. Tubes are incubated at 37° C. in a constant temperature water bath. […] The reaction is then initiated by the addition of 10 μL of preincubated ACC fraction prepared as described above. After 7 minutes the reaction is terminated by the addition of 50 μL of 6N HCl and a 150 μL aliquot of the reaction mixture is transferred to glass scintillation vials and evaporated to dryness at 90° C. for at least 1 hour. The dried vials are then cooled, 0.5 ml of water and 5.5 ml of Ready Safe liquid scintillation fluid (Beckman Coulter Inc., Fullerton, Calif.) are added, and the radioactivity is determined using a liquid scintillation counter. Tubes that received HCl before ACC served as blanks.

SMILES | IC50
COc1cccc2c1C(=O)CC1(CCN(C(=O)c3cc(C)c4[nH]ncc4c3)CC1)O2 [Ex. A25, 5-methoxy-1′-[(7-methyl-1H-indazol-5-yl)carbonyl]spiro[chromene-2,4′-piperidin]-4(3H)-one] | 112 nM
N#Cc1ccc2c(c1)C(=O)CC1(CCN(C(=O)c3cc(Cl)c4[nH]ncc4c3)CC1)O2 [Ex. B14, 1′-[(7-chloro-1H-indazol-5-yl)carbonyl]-4-oxo-3,4-dihydrospiro[chromene-2,4-piperidine]carbonitrile] | 331 nM
CCc1cc(C(=O)N2CCC3(CC2)CC(=O)c2cc(C)c(C)cc2O3)cc2cn[nH]c12 [Ex. C1, 1′-[(7-ethyl-1H-indazol-5-yl)carbonyl]-6,7-dimethylspiro[chromene-2,4′-piperidin]-4(3H)-one] | 17.5 nM
COc1ccc2c(c1)C(=O)CC1(CCN(C(=O)c3ccc4c(cnn4C)c3)CC1)O2 [Ex. D2, 6-methoxy-1′-[(1-methyl-1H-indazol-5-yl)carbonyl]spiro[chromene-2,4′-piperidin]-4(3H)-one] | 216 nM
Cc1cc(C(=O)N2CCC3(CC2)CC(=O)c2cc(C(=O)N(C)C)ccc2O3)cc2cn[nH]c12 [Ex. A27, N,N-dimethyl-1′-[(7-methyl-1H-indazol-5-yl)carbonyl]-4-oxo-3,4-dihydrospiro[chromene-2,4′-piperidine]-6-carboxamide] | 125 nM
CCc1cc(C(=O)N2CCC3(CC2)CC(=O)c2cc(Cl)c(C)cc2O3)cc2cn[nH]c12 [Ex. C4, 6-chloro-1′-[(7-ethyl-1H-indazol-5-yl)carbonyl]-7-methylspiro[chromene-2,4′-piperidin]-4(3H)-one] | 30.6 nM
Cc1cc2c(cc1C)C(=O)CC1(CCN(C(=O)c3ccc4c(C)n[nH]c4c3)CC1)O2 [Ex. F1, 6,7-dimethyl-1′-[(3-methyl-1H-indazol-6-yl)carbonyl]spiro[chromene-2,4′-piperidin]-4(3H)-one] | 35.7 nM
Cc1cc2c(cc1Cl)C(=O)CC1(CCN(C(=O)c3ccc4c(cnn4C)c3)CC1)O2 [Ex. D3, 6-chloro-7-methyl-1′-[(1-methyl-1H-indazol-5-yl)carbonyl]spiro[chromene-2,4′-piperidin]-4(3H)-one] | 250 nM
Cc1cc2c(cc1C)C(=O)CC1(CCN(C(=O)c3ccc4cc[nH]c4c3)CC1)O2 [Ex. L2, 1′-(1H-indol-6-ylcarbonyl)-6,7-dimethylspiro[chromene-2,4′-piperidin]-4(3H)-one trifluoroacetic acid salt] | 155 nM
Cc1cc(C(=O)N2CCC3(CC2)CC(=O)c2cc(C(F)(F)F)ccc2O3)cc2cn[nH]c12 [Ex. A20, 1′-[(7-methyl-1H-indazol-5-yl)carbonyl]-6-(trifluoromethyl)spiro[chromene-2,4′-piperidin]-4(3H)-one] | 96.6 nM

Second part, the compound after the results:

IC50 | SMILES
885 nM | Cc1cc2c(cc1C)C(=O)CC1(CCN(C(=O)c3cccc4[nH]cnc34)CC1)O2 [Ex. L17, 1′-(1H-benzimidazol-4-ylcarbonyl)-6,7-dimethylspiro[chromene-2,4′-piperidin]-4(3H)-one trifluoroacetic acid salt]
65 nM | COc1cccc2c1C(=O)CC1(CCN(C(=O)c3ccc4[nH]c5c(c4c3)CCCC5)CC1)O2 [Ex. L16, 5-methoxy-1′-(2,3,4,9-tetrahydro-1H-carbazol-6-ylcarbonyl)spiro[chromene-2,4′-piperidin]-4(3H)-one]
164 nM | Cc1cc2c(cc1C)C(=O)CC1(CCN(C(=O)c3ccc4nc[nH]c4c3)CC1)O2 [Ex. L22, 1′-(1H-benzimidazol-5-ylcarbonyl)-6,7-dimethylspiro[chromene-2,4′-piperidin]-4(3H)-one trifluoroacetic acid salt]
368 nM | Cc1cc2ccc(C(=O)N3CCC4(CC3)CC(=O)c3cc(C)c(C)cc3O4)cc2[nH]1 [Ex. L3, 6,7-dimethyl-1′-[(2-methyl-1H-indol-6-yl)carbonyl]spiro[chromene-2,4′-piperidin]-4(3H)-one trifluoroacetic acid salt]
4860 nM | Cc1cc2c(cc1Cl)C(=O)CC1(CCN(C(=O)c3ccc4[nH]nnc4c3)CC1)O2 [Ex. L40, 1′-(1H-1,2,3-benzotriazol-5-ylcarbonyl)-6-chloro-7-methylspiro[chromene-2,4′-piperidin]-4(3H)-one]
43.8 nM | Cc1cc2c(cc1C)C(=O)CC1(CCN(C(=O)c3ccc4[nH]cc(Cl)c4c3)CC1)O2 [Ex. L9, 1′-[(3-chloro-1H-indol-5-yl)carbonyl]-6,7-dimethylspiro[chromene-2,4′-piperidin]-4(3H)-one]
< 1000 nM | Cc1[nH]c2ccc(C(=O)N3CCC4(CC3)CC(=O)c3cc(Cl)ccc3O4)cc2c1C [Ex. L12, 6-chloro-1′-[(2,3-dimethyl-1H-indol-5-yl)carbonyl]spiro[chromene-2,4′-piperidin]-4(3H)-one]
271 nM | Cc1cc2c(cc1C)C(=O)CC1(CCN(C(=O)c3ccc4cn[nH]c4c3)CC1)O2 [Ex. G1, 1-(1H-indazol-6-ylcarbonyl)-6,7-dimethylspiro[chromene-2,4′-piperidin]-4(3H)-one trifluoroacetic acid salt]
< 3000 nM | Cc1cc2c(cc1C)C(=O)CC1(CCN(C(=O)c3ccc4c(c3)CCC(=O)N4)CC1)O2 [L44, 6,7-dimethyl-1′-[(2-oxo-1,2,3,4-tetrahydroquinolin-6-yl)carbonyl]spiro[chromene-2,4′-piperidin]-4(3H)-one]
264 nM | Cc1cc2c(cc1Br)C(=O)CC1(CCN(C(=O)c3cccc4cn[nH]c34)CC1)O2 [Ex. H3, 6-bromo-1′-(1H-indazol-7-ylcarbonyl)-7-methylspiro[chromene-2,4′-piperidin]-4(3H)-one]
167 nM | Cc1cc2c(cc1C)C(=O)CC1(CCN(C(=O)c3ccc4cnn(C)c4c3)CC1)O2 [Ex. G2, 6,7-dimethyl-1′-[(1-methyl-1H-indazol-6-yl)carbonyl]spiro[chromene-2,4′-piperidin]-4(3H)-one]

Same assay, conditions: Table of Examples M1-M36

IC50 | SMILES
613 nM | O=C1CC2(CCN(C(=O)c3cccc(-c4cc[nH]n4)c3)CC2)Oc2ccc(Cl)cc21 [Ex. M30, 6-Chloro-1′-[3-(1H-pyrazol-3-yl)benzoyl]spiro[chromene-2,4′-piperidin]-4(3H)-one]
73.6 nM | Cc1cc2c(cc1C)C(=O)CC1(CCN(C(=O)c3cccc(-c4cc[nH]n4)c3)CC1)O2 [Ex. M2, 6,7-dimethyl-1′-[3-(1H-pyrazol-3-yl)benzoyl]spiro[chromene-2,4′-piperidin]-4(3H)-one]
817 nM | O=C1CC2(CCN(C(=O)c3cccc(-c4cc[nH]n4)c3)CC2)Oc2cc(F)ccc21 [Ex. M34, 7-Fluoro-1′-[3-(1H-pyrazol-3-yl)benzoyl]spiro[chromene-2,4′-piperidin]-4(3H)-one]
205 nM | Cc1ccc2c(c1)OC1(CCN(C(=O)c3cccc(-c4cc[nH]n4)c3)CC1)CC2=O [Ex. M12, 7-methyl-1′-[3-(1H-pyrazol-3-yl)benzoyl]spiro[chromene-2,4′-piperidin]-4(3H)-one]
37.5 nM | COc1cc(C)cc2c1C(=O)CC1(CCN(C(=O)c3cccc(-c4cc[nH]n4)c3)CC1)O2 [Ex. M1, 5-methoxy-7-methyl-1′-[3-(1H-pyrazol-3-yl)benzoyl]spiro[chromene-2,4′-piperidin]-4(3H)-one]

Same assay, conditions: Table of Examples P1-P15

IC50 | SMILES
73.9 nM | Cc1cc2c(cc1C)C(=O)CC1(CCN(C(=O)c3cccc(-c4ncc[nH]4)c3)CC1)O2 [Ex. P12, 1′-[3-(1H-imidazol-2-yl)benzoyl]-6,7-dimethylspiro[chromene-2,4′-piperidin]-4(3H)-one trifluoroacetic acid salt]
426 nM | Cc1cc2c(cc1Cl)C(=O)CC1(CCN(C(=O)c3cccc(-c4cc(C(F)(F)F)[nH]n4)c3)CC1)O2 [Ex. P2, 6-chloro-7-methyl-1′-{3-[5-(trifluoromethyl)-1H-pyrazol-3-yl]benzoyl}spiro[chromene-2,4′-piperidin]-4(3H)-one trifluoroacetic acid salt]
